Source: patent US20030166609A1, “Medicine containing polysacccharide substances for activating apoptosis” (priority 2000, published 2003)

Key:
Assay type in all cases: cell-based, human
[1] = tested on: Fas receptors at the surface of T lymphocytes (of the Jurkat type); assay: Fas receptors at the surface of Jurkat-type T lymphocytes, fluorescence by flow cytometry
Description: Work was carried out on a culture of immortalized human cells consisting of T lymphocytes (of the Jurkat type).
The medium used for culturing the Jurkat-type cells is that marketed by the company Life Technologies under the name “RPMI 1640 Medium”; this medium is described by Moore et al. in the publication “A.M.A.” 199, 519 (1967).
10^6 T lymphocytes of the Jurkat type were suspended in 5 ml of this medium. The culturing was carried out in an incubator at a temperature of 37° C. and in an atmosphere containing 5% CO2.
After incubation for 24 hours, the cells multiplied to reach 2×10^6 cells.
These cells are recovered by centrifugation, and are washed in an isotonic PBS buffer. A further incubation of these 2×10^6 cells is then carried out in 1 ml of the abovementioned medium at 4° C. and in an atmosphere containing 5% CO2, for 45 minutes in the presence of an anti-Fas receptor, sold under the catalog number 05-201 by Euromedex, diluted to 1/50 in PBS containing 1% of bovine serum albumin (BSA).
At the end of this incubation, the cells are collected and are washed with the isotonic PBS buffer. After washing, a further incubation of the cells is carried out for 45 minutes at 4° C. in the presence of an antibody against hamster immunoglobulins (IgGs) (produced in the goat) which is coupled to fluorescein isothiocyanate, diluted to 1/50 in PBS containing 1% of BSA (marketed by Euromedex, No. AP128F).
Controls were prepared by incubating the T lymphocytes of the Jurkat type only with the second antibody (goat anti-hamster IgG coupled to fluorescein isothio-cyanate).
The increase in the number of Fas receptors at the surface of the cells, under the action of dextran sulfate, is then determined.
Consequently, the fluorescence of the cells (which is proportional to the number of receptors present at the surface) is determined in the absence of dextran sulfate and in the presence of dextran sulfate for a number of solutions at various concentrations. The ratio of the fluorescence in the absence of dextran sulfate to the fluorescence with dextran sulfate is then calculated. In the following text, the result of this calculation is called “ratio”.
Various assays are carried out by introducing into the culture medium, at time t=0 of the experiment, dextran sulfate at the following doses: 0.2 mg/ml, 0.1 mg/ml, 0.02 mg/ml and 0.002 mg/ml; the dextran sulfate is that marketed by the company Sigma.
After various times of incubation with the dextran sulfate, the presence of Fas receptors at the surface of the cells is detected by fluorescence. This fluorescence is induced by the fluorescein isothio-cyanate coupled to the anti-Fas receptor antibodies which are attached to the Fas receptors, and was measured by passing a cell sample containing 10^4 cells through a device such as those which function by flow cytometry, in this case that marketed by the company Beckton Dickinson under the name “FACS Scan Flow Cytometer”. The intensity of the fluorescence, which is expressed in arbitrary units, therefore depends on the number of Fas receptors present at the surface of the cells making up the sample.
For each sample, the curve representing the variation in fluorescence as a function of said number of cells having receptors at their surface is constructed on a graph on which the fluorescence (arbitrary units) is recorded on the X axis and the number of cells (to within one multiplication factor) having receptors at their surface is recorded on the Y axis; this curve reflects a Gaussian-type distribution of the fluorescence.
The various assays carried out make it possible to classify the cell populations as a function of the fluorescence, i.e. as a function of the number of receptors present at the surface of the cells.
The different maximum fluorescence values for each assay, which reflect the different numbers of receptors present at the surface, depend on the active products used in the various assays. […]

[2] = tested on: Fas receptors at the surface of Hep-G2 liver cells; assay: Fas receptors at the surface of Hep-G2 liver cells, fluorescence by flow cytometry; conditions: for Fluorescence Ratio: vs control
Description: Work was carried out on a culture of liver cells named Hep-G2 (marketed by ECACC (European collection of human genetic cell lines)).
The same procedure is carried out as in example 1, replacing the T lymphocytes of the Jurkat type with Hep-G2 liver cells.
The presence of Fas receptors at the surface of the cells was measured by fluorescence, as in example 1, and the results obtained are expressed as in example 1, in the form of FIGS. 9 to 12. […]
For this, the same procedure as in example 1 was carried out.

[3] = tested on: TNF alpha receptors (p55 TNF receptor) on Jurkat-type cells; assay: TNF alpha receptors at the surface of Jurkat-type cells, fluorescence by flow cytometry
Description: In this example, the effect of dextran sulfate at a concentration of 0.1 mg/ml on the increase in the number of TNF alpha receptors on Jurkat-type cells was measured.
The medium used for culturing the Jurkat-type cells is that marketed by the company Life Technologies under the name “RPMI 1640 medium”; this medium is described by Moore et al. in the publication “A.M.A.” 199, 519 (1967).
10^6 T lymphocytes are suspended in 5 ml of this medium. The culturing was carried out in an incubator at a temperature of 37° C. and in an atmosphere containing 5% CO2. After incubation for 24 hours, the cells multiplied to reach 2×10^6 cells.
These cells are recovered by centrifugation, and are washed in an isotonic PBS buffer. A further incubation is then carried out in 1 ml of the abovementioned medium at 4° C. and in an atmosphere containing 5% CO2, for 45 minutes in the presence of an anti-human p55 TNF receptor, clone MR1-2, ref. MON9062 produced in mice by Genzyme SA, diluted to 1/50 in PBS containing 1% of bovine serum albumin (BSA).
The cells are recovered and are washed with the isotonic PBS buffer. A further incubation is carried out with an antibody against mouse immunoglobulins (IgGs) (produced in the goat) coupled to fluorescein isothiocyanate, diluted to 1/50 in PBS containing 1% of BSA. […]
The influence of the dextran sulfate is determined by introducing 0.1 mg of dextran sulfate per ml into the culture medium.
The presence of TNF alpha receptors at the surface of the cells was measured by fluorescence as in the previous examples.
In FIG. 17, in which the Y-axis represents the number (to within one multiplication factor) of TNF alpha receptors at the surface of the cells, and in which the X-axis represents the intensity of fluorescence (arbitrary units), the Gaussian distribution of the fluorescence for the control sample (curve T1) and for the sample which was incubated in the presence of 0.1 mg/ml of dextran sulfate (curve C17) is represented in the form of a curve.

[4] = Hep-G2, 0.02 mg/ml dextran sulfate (0.2 mg/ml given in source), 6 h (curve C13)
[5] = Hep-G2, 0.02 mg/ml dextran sulfate (0.2 mg/ml given in source), 24 h (curve C14)
[6] = Hep-G2, 0.02 mg/ml dextran sulfate (0.2 mg/ml given in source), 48 h (curve C15)
[7] = Hep-G2, 0.02 mg/ml dextran sulfate (0.2 mg/ml given in source), 72 h (curve C16)
[8] = Hep-G2, dextran sulfate 0.002 mg/ml (curve C12)
[9] = Hep-G2, dextran sulfate 0.02 mg/ml (curve C11)
[10] = Hep-G2, dextran sulfate 0.1 mg/ml (curve C10)
[11] = Hep-G2, dextran sulfate 0.2 mg/ml (curve C9)

## dextran sulfate
[1]; 0.02 mg/ml dextran sulfate
  incubation time of the maximum of the increase in the number of Fas receptors at the cell surface: 48 h
[1]; 0.02 mg/ml dextran sulfate, 6 h (curve C41)
  Fluorescence Value measured (peak of curve): 100 arbitrary units
[1]; 0.02 mg/ml dextran sulfate, 6 h (curve C41), vs control
  Fluorescence Ratio: 2
[1]; 0.02 mg/ml dextran sulfate, 24 h (curve C42)
  Fluorescence Value measured (peak of curve): 120 arbitrary units
[1]; 0.02 mg/ml dextran sulfate, 24 h (curve C42), vs control
  Fluorescence Ratio: 2.4
[1]; 0.02 mg/ml dextran sulfate, 48 h (curve C43)
  Fluorescence Value measured (peak of curve): 150 arbitrary units
[1]; 0.02 mg/ml dextran sulfate, 48 h (curve C43), vs control
  Fluorescence Ratio: 3
[1]; 0.02 mg/ml dextran sulfate, 72 h (curve C44)
  Fluorescence Value measured (peak of curve): 80 arbitrary units
[1]; 0.02 mg/ml dextran sulfate, 72 h (curve C44), vs control
  Fluorescence Ratio: 1.6
[1]; at greater dilution effect too diminished, higher concentration does not enhance
  minimum concentration for increase in the number of Fas receptors at the cell surface: 0.02 mg/mL
[1]; dextran sulfate 0.002 mg/ml (curve C5)
  Fluorescence Value measured (peak of curve): 90 arbitrary units
[1]; dextran sulfate 0.002 mg/ml (curve C5), vs control
  Fluorescence Ratio: 1.13
[1]; dextran sulfate 0.02 mg/ml (curve C4)
  Fluorescence Value measured (peak of curve): 200 arbitrary units
[1]; dextran sulfate 0.02 mg/ml (curve C4), vs control
  Fluorescence Ratio: 2.50
[1]; dextran sulfate 0.1 mg/ml (curve C3)
  Fluorescence Value measured (peak of curve): 250 arbitrary units
[1]; dextran sulfate 0.1 mg/ml (curve C3), vs control
  Fluorescence Ratio: 3.13
[1]; dextran sulfate 0.2 mg/ml (curve C2)
  Fluorescence Value measured (peak of curve): 250 arbitrary units
[1]; dextran sulfate 0.2 mg/ml (curve C2), vs control without dextran sulfate
  Fluorescence Ratio: 3.13
[2]; Hep-G2
  minimum concentration for increase in the number of Fas receptors at the cell surface: 0.02 mg/mL
  optimum concentration for increase in the number of Fas receptors at the cell surface: 0.1 mg/mL
[2]; [4]
  Fluorescence Value measured (peak of curve): 40 arbitrary units
  Fluorescence Ratio: 1.6
[2]; [5]
  Fluorescence Value measured (peak of curve): 50 arbitrary units
  Fluorescence Ratio: 2
[2]; [6]
  Fluorescence Value measured (peak of curve): 70 arbitrary units
  Fluorescence Ratio: 2.8
[2]; [7]
  Fluorescence Value measured (peak of curve): 50 arbitrary units
  Fluorescence Ratio: 2
[2]; Hep-G2, dextran sulfate
  incubation time of the maximum of the increase in the number of Fas receptors at the cell surface: 48 h
[2]; [8]
  Fluorescence Value measured (peak of curve): 60 arbitrary units
  Fluorescence Ratio: 1
[2]; [9]
  Fluorescence Value measured (peak of curve): 120 arbitrary units
  Fluorescence Ratio: 2
[2]; [10]
  Fluorescence Value measured (peak of curve): 140 arbitrary units
  Fluorescence Ratio: 2.3
[2]; [11]
  Fluorescence Value measured (peak of curve): 160 arbitrary units
  Fluorescence Ratio: 2.7
[3]; TNF alpha receptors, dextran sulfate 0.1 mg/ml (curve C17)
  Fluorescence Value measured (peak of curve): 200 arbitrary units
[3]; TNF alpha receptors, dextran sulfate 0.1 mg/ml, vs control
  Fluorescence Ratio: 1.14
[3]; dextran sulfate 0.1 mg/ml, called weak
  increase in the number of TNF alpha receptors at the surface: 10%

## iota-carrageenan [Ic]
[1]; Ic 0.2 mg/ml
  incubation time of the maximum of the increase in the number of Fas receptors at the cell surface: 24 h
[1]; Ic 0.2 mg/ml, 6 h
  Fluorescence Value measured (peak of curve): 80 arbitrary units
[1]; Ic 0.2 mg/ml, 6 h, vs control
  Fluorescence Ratio: 1.3
[1]; Ic 0.2 mg/ml, 24 h
  Fluorescence Value measured (peak of curve): 180 arbitrary units
[1]; Ic 0.2 mg/ml, 24 h, vs control
  Fluorescence Ratio: 2.7
[1]; Ic 0.2 mg/ml, 48 h
  Fluorescence Value measured (peak of curve): 125 arbitrary units
[1]; Ic 0.2 mg/ml, 48 h, vs control
  Fluorescence Ratio: 2.1
[1]; Ic 0.2 mg/ml, 72 h
  Fluorescence Value measured (peak of curve): 100 arbitrary units
[1]; Ic 0.2 mg/ml, 72 h, vs control
  Fluorescence Ratio: 1.7
